Assay results as given in US11591634B1, “Forecasting bacterial survival-success and adaptive evolution through multiomics stress-response mapping and machine learning” (priority 2019, dated 2023).
In brackets after ≈: the same amount, converted by molar mass.

Columns and labels:
[1] = system: S. pneumoniae strain TIGR4 (T4); experiment: Determination of relative minimal inhibitory concentration (MIC); format: cell-based, Streptococcus pneumoniae; conditions: Streptococcus pneumoniae, lowest concentration that abolishes bacterial growth, 16 hours, 37° C., read-out: 1x MIC for T4
Protocol: (§1) Each concentration was tested in triplicate. Growth was monitored on a Tecan Infinite 200 PRO plate reader at 37° C. for 16 hours. MIC is determined as the lowest concentration that abolishes bacterial growth (FIGS. 6A-6H).

[2] = system: S. pneumoniae strain Taiwan-19F (19F); experiment: as above; format: cell-based, Streptococcus pneumoniae; conditions: Streptococcus pneumoniae, 16 h, read-out: 1x MIC for 19F
Protocol: as §1

[3] = system: S. pneumoniae 19F; experiment: Fitness outcome under antibiotic exposure (growth curve assay); format: cell-based, Streptococcus pneumoniae
Protocol: To test whether a gene-panel model can be trained that predicts fitness for many different conditions, a large RNA-Seq dataset was generated for the human pathogen Streptococcus pneumoniae. […] These include cell wall synthesis inhibitors (CWSI), DNA synthesis inhibitors (DSI), protein synthesis inhibitors (PSI) and RNA synthesis inhibitors ((RSI); FIG. 1A, Tables 1 & 2). Each strain was exposed to each antibiotic for 2 to 4 hours and cells were harvested for RNA-Seq at various time points. As T4 and 19F are susceptible to most antibiotics used, the transcriptional profiles in the presence of antibiotics mostly represent cases of low fitness (FIG. 1A, sensitive strain, 1xMICWT). In order to find patterns that differentiate fitness outcomes, adapted strains were generated with increased fitness in the presence of antibiotics by serial passaging wildtype T4 and 19F in the presence of increasing amounts of antibiotics. Four independent adapted populations for each strain were selected on individual antibiotics. These adapted strains could grow in the presence of antibiotic at 1.5xMIC of the wildtype strain, albeit with a small growth defect (FIGS. 6A-6E & 6F). In parallel, RNA-Seq was performed on S. pneumoniae strains D39 and T4 in a chemically defined medium, and media from which either uracil, Glycine or L-Valine was removed, which are essential for D39 but not T4. This enabled the potential identification of a common stress signature that is shared between antibiotic exposure and nutrient deprivation, and across multiple strains. Lastly, D39 was adapted to grow in the absence of each individual nutrient, after which RNA-Seq was repeated for adapted clones (Table 1 lists all 24 strains, 67 populations and 267 RNA-Seq experiments).
(§2) S. pneumoniae strain TIGR4 (T4; NC_003028.3) is a serotype 4 strain originally isolated from a patient^3,4, Taiwan-19F (19F; NC_012469.1) is a multi-drug resistant strain^5,6 and D39 (NC_008533) is a commonly used serotype 2 strain originally isolated from a patient about 90 years ago^7. Strain PG1 and PG19 were isolated from adults with pneumococcal bacteremia infection and included in the Pneumococcal Bacteremia Collection Nijmegen (PBCN)^8. All S. pneumoniae gene numbers refer to the T4 genome. Correspondence between homologous genes among S. pneumoniae strains and gene function annotations are described herewith. Escherichia coli strain AR538, Klebsiella pneumoniae strain AR497 and Salmonella enterica subsp Typhimurium strain AR635 were clinical isolates obtained from the Center of Disease Control (CDC). Staphylococcus aureus strain MN6 was kindly provided by George Sakoulas (Center of Immunity, Infection & Inflammation, UCSD School of Medicine). Unless otherwise specified, S. pneumoniae strains were cultivated in Todd Hewitt medium with 5% yeast extract (THY) with 5 μL/mL oxyrase (Oxyrase, Inc) or on sheep's blood agar plates (Northeastern Laboratories) at 37° C. with 5% CO2. A. baumannii, E. coll. K. pneumoniae, S. aureus and S. Typhimurium were cultured in Mueller Hinton broth II (Sigma) at 37° C. with 220 rpm constant shaking. Tn-Seq and RNA-Seq experiments of S. pneumoniae under nutrient-depletion and antibiotic conditions were performed in chemically defined medium (CDM)^9 and semi-defined minimal medium (SDMM)^10, respectively. RNA-Seq experiments for A. baumannii, S. Typhimurium, E. coll. K. pneumoniae, and S. aureus were performed in Mueller Hinton broth II. Single strain growth assays were performed at least three times using 96-well plates by taking OD600 measurements on a Tecan Infinite 200 PRO plate reader.

[4] = system: Acinetobacter baumannii 17978; experiment: Fitness outcome under ciprofloxacin (growth curve assay); format: cell-based; conditions: A. baumannii 17978; 1 μg/mL ciprofloxacin
Description: as §2, with “K. pneumoniae, S. aureus and S. Typhimurium were cultured in Mueller Hinton broth II (Sigma) at 37° C. with 220 rpm constant shaking. Tn-Seq and RNA-Seq experiments of S. pneumoniae under nutrient-depletion and antibiotic conditions were performed in chemically defined medium (CDM)^9 and semi-defined minimal medium (SDMM)^10, respectively. RNA-Seq experiments for A. baumannii, S. Typhimurium, E. coll. K. pneumoniae, and S. aureus were performed in Mueller Hinton broth II.” left out

[5] = system: Acinetobacter baumannii LAC-4; experiment: as above; format: cell-based; conditions: A. baumannii LAC-4; 1 μg/mL ciprofloxacin
Description: as §2, with “K. pneumoniae, S. aureus and S. Typhimurium were cultured in Mueller Hinton broth II (Sigma) at 37° C. with 220 rpm constant shaking. Tn-Seq and RNA-Seq experiments of S. pneumoniae under nutrient-depletion and antibiotic conditions were performed in chemically defined medium (CDM)^9 and semi-defined minimal medium (SDMM)^10, respectively. RNA-Seq experiments for A. baumannii, S. Typhimurium, E. coll. K. pneumoniae, and S. aureus were performed in Mueller Hinton broth II.” left out

O=C(O)c1cn(C2CC2)c2cc(N3CCNCC3)c(F)cc2c1=O [Ciprofloxacin, ciprofloxacin]
MIC [1]: 1 µg/mL (≈ 3.02 µM)
MIC [2]: 1 µg/mL (≈ 3.02 µM)
Fitness ([3]; S. pneumoniae 19F wild-type, growth curves): Low
Survive (real survival outcome) ([3]; strain 19F, Adapted FALSE, Concentration L (low)): FALSE
Fitness [4]: Low
Fitness [5]: High
